Laboratory results from the NIST ThermoML archive (doi:10.1016/j.jct.2016.03.030).

Experiment: xn = mol fraction of the nth substance listed
Conditions: 100 kPa, Liquid; for viscosity: Falling or rolling sphere viscometry; for mass density: Vibrating tube method

CCCC[N+]1(C)CCOCC1.[Br-] [4-butyl-4-methylmorpholinium bromide] + O
Conditions	mass density [kg/m3]	viscosity [mPa·s]
298.15 K, x1 = 0.0017	1002.2	–
298.15 K, x1 = 0.0033	1007.1	–
298.15 K, x1 = 0.0066	1016.8	–
298.15 K, x1 = 0.0088	1022.9	–
298.15 K, x1 = 0.0167	1043.3	–
298.15 K, x1 = 0.034	1081.4	–
298.15 K, x1 = 0.0363	1086	1.96
298.15 K, x1 = 0.0601	1125.3	3.204
298.15 K, x1 = 0.0988	1170.8	6.179
298.15 K, x1 = 0.1242	1192	9.576
298.15 K, x1 = 0.154	1211.4	15.07
298.15 K, x1 = 0.2027	1234.7	32.61
298.15 K, x1 = 0.2383	1247.4	57.4
298.15 K, x1 = 0.2569	1252.8	81.23
298.15 K, x1 = 0.3007	1263.9	159.1
303.15 K, x1 = 0.0017	1000.7	–
303.15 K, x1 = 0.0033	1005.6	–
303.15 K, x1 = 0.0066	1015.2	–
303.15 K, x1 = 0.0088	1021.3	–
303.15 K, x1 = 0.0167	1041.5	–
303.15 K, x1 = 0.034	1079.1	–
303.15 K, x1 = 0.0363	1083.7	1.715
303.15 K, x1 = 0.0601	1122.6	2.745
303.15 K, x1 = 0.0988	1167.7	5.16
303.15 K, x1 = 0.1242	1188.7	7.888
303.15 K, x1 = 0.154	1208.1	12.19
303.15 K, x1 = 0.2027	1231.3	25.31
303.15 K, x1 = 0.2383	1244	42.75
303.15 K, x1 = 0.2569	1249.4	60.27
303.15 K, x1 = 0.3007	1260.5	113.5
308.15 K, x1 = 0.0017	999.1	–
308.15 K, x1 = 0.0033	1003.9	–
308.15 K, x1 = 0.0066	1013.4	–
308.15 K, x1 = 0.0088	1019.5	–
308.15 K, x1 = 0.0167	1039.5	–
308.15 K, x1 = 0.034	1076.7	–
308.15 K, x1 = 0.0363	1081.3	1.5
308.15 K, x1 = 0.0601	1119.7	2.367
308.15 K, x1 = 0.0988	1164.5	4.353
308.15 K, x1 = 0.1242	1185.4	6.566
308.15 K, x1 = 0.154	1204.7	9.969
308.15 K, x1 = 0.2027	1227.9	20
308.15 K, x1 = 0.2383	1240.7	32.82
308.15 K, x1 = 0.2569	1246.1	45.77
308.15 K, x1 = 0.3007	1257.2	82.89
313.15 K, x1 = 0.0017	997.2	–
313.15 K, x1 = 0.0033	1002	–
313.15 K, x1 = 0.0066	1011.4	–
313.15 K, x1 = 0.0088	1017.4	–
313.15 K, x1 = 0.0167	1037.3	–
313.15 K, x1 = 0.034	1074.2	–
313.15 K, x1 = 0.0363	1078.7	1.323
313.15 K, x1 = 0.0601	1116.8	2.061
313.15 K, x1 = 0.0988	1161.3	3.716
313.15 K, x1 = 0.1242	1182.1	5.497
313.15 K, x1 = 0.154	1201.3	8.279
313.15 K, x1 = 0.2027	1224.5	16.07
313.15 K, x1 = 0.2383	1237.3	25.69
313.15 K, x1 = 0.2569	1242.7	35.46
313.15 K, x1 = 0.3007	1253.9	62.18
318.15 K, x1 = 0.0017	995.2	–
318.15 K, x1 = 0.0033	999.9	–
318.15 K, x1 = 0.0066	1009.3	–
318.15 K, x1 = 0.0088	1015.3	–
318.15 K, x1 = 0.0167	1034.9	–
318.15 K, x1 = 0.034	1071.5	–
318.15 K, x1 = 0.0363	1076	1.175
318.15 K, x1 = 0.0601	1113.8	1.81
318.15 K, x1 = 0.0988	1158	3.204
318.15 K, x1 = 0.1242	1178.7	4.65
318.15 K, x1 = 0.154	1197.9	6.951
318.15 K, x1 = 0.2027	1221.1	13.12
318.15 K, x1 = 0.2383	1233.9	20.44
318.15 K, x1 = 0.2569	1239.3	28.04
318.15 K, x1 = 0.3007	1250.6	47.76
323.15 K, x1 = 0.0017	993	–
323.15 K, x1 = 0.0033	997.7	–
323.15 K, x1 = 0.0066	1007	–
323.15 K, x1 = 0.0088	1012.9	–
323.15 K, x1 = 0.0167	1032.5	–
323.15 K, x1 = 0.034	1068.8	–
323.15 K, x1 = 0.0363	1073.2	1.039
323.15 K, x1 = 0.0601	1110.8	1.578
323.15 K, x1 = 0.0988	1154.6	2.745
323.15 K, x1 = 0.1242	1175.3	3.912
323.15 K, x1 = 0.154	1194.4	5.805
323.15 K, x1 = 0.2027	1217.7	10.72
323.15 K, x1 = 0.2383	1230.5	16.36
323.15 K, x1 = 0.2569	1235.9	22.35
323.15 K, x1 = 0.3007	1247.2	36.9
328.15 K, x1 = 0.0017	990.6	–
328.15 K, x1 = 0.0033	995.3	–
328.15 K, x1 = 0.0066	1004.5	–
328.15 K, x1 = 0.0088	1010.4	–
328.15 K, x1 = 0.0167	1029.8	–
328.15 K, x1 = 0.034	1065.9	–
328.15 K, x1 = 0.0363	1070.1	0.923
328.15 K, x1 = 0.0601	1107.6	1.387
328.15 K, x1 = 0.0988	1151.2	2.377
328.15 K, x1 = 0.1242	1171.8	3.323
328.15 K, x1 = 0.154	1191	4.888
328.15 K, x1 = 0.2027	1214.3	8.882
328.15 K, x1 = 0.2383	1227.1	13.28
328.15 K, x1 = 0.2569	1232.5	18.01
328.15 K, x1 = 0.3007	1243.9	29.03
333.15 K, x1 = 0.0017	988.1	–
333.15 K, x1 = 0.0033	992.7	–
333.15 K, x1 = 0.0066	1001.9	–
333.15 K, x1 = 0.0088	1007.8	–
333.15 K, x1 = 0.0167	1027.1	–
333.15 K, x1 = 0.034	1062.9	–
333.15 K, x1 = 0.0363	1067.3	0.83
333.15 K, x1 = 0.0601	1104.4	1.233
333.15 K, x1 = 0.0988	1147.8	2.082
333.15 K, x1 = 0.1242	1168.4	2.867
333.15 K, x1 = 0.154	1187.5	4.16
333.15 K, x1 = 0.2027	1210.8	7.465
333.15 K, x1 = 0.2383	1223.7	10.98
333.15 K, x1 = 0.2569	1229.1	14.86
333.15 K, x1 = 0.3007	1240.5	23.47
338.15 K, x1 = 0.0017	985.4	–
338.15 K, x1 = 0.0033	990	–
338.15 K, x1 = 0.0066	999.2	–
338.15 K, x1 = 0.0088	1005	–
338.15 K, x1 = 0.0167	1024.2	–
338.15 K, x1 = 0.034	1059.9	–
338.15 K, x1 = 0.0363	1064.3	0.751
338.15 K, x1 = 0.0601	1101.1	1.106
338.15 K, x1 = 0.0988	1144.3	1.836
338.15 K, x1 = 0.1242	1164.8	2.502
338.15 K, x1 = 0.154	1184	3.568
338.15 K, x1 = 0.2027	1207.3	6.337
338.15 K, x1 = 0.2383	1220.3	9.093
338.15 K, x1 = 0.2569	1225.8	12.32
338.15 K, x1 = 0.3007	1237.2	19.19
343.15 K, x1 = 0.0017	982.6	–
343.15 K, x1 = 0.0033	987.2	–
343.15 K, x1 = 0.0066	996.3	–
343.15 K, x1 = 0.0088	1002.1	–
343.15 K, x1 = 0.0167	1021.2	–
343.15 K, x1 = 0.034	1056.7	–
343.15 K, x1 = 0.0363	1061.1	0.685
343.15 K, x1 = 0.0601	1097.5	0.992
343.15 K, x1 = 0.0988	1140.8	1.633
343.15 K, x1 = 0.1242	1161.3	2.288
343.15 K, x1 = 0.154	1180.4	3.149
343.15 K, x1 = 0.2027	1203.8	5.442
343.15 K, x1 = 0.2383	1216.8	7.452
343.15 K, x1 = 0.2569	1222.4	10.42
343.15 K, x1 = 0.3007	1233.8	15.92
